{"source": "patent US11318141B2", "about": "“Methods and compositions related to STK1-targeted small molecules as antibiotic resistance breakers” (Ohio State Innovation Foundation, priority 2017, dated 2022)", "key": {"[1]": {"molecular_target": "S. aureus STKK1 (the soluble kinase domain of STK1, 280 aa) (Staphylococcus aureus, UniProt A0ABF7PGK0)", "sequence (A0ABF7PGK0 entry or part of it)": "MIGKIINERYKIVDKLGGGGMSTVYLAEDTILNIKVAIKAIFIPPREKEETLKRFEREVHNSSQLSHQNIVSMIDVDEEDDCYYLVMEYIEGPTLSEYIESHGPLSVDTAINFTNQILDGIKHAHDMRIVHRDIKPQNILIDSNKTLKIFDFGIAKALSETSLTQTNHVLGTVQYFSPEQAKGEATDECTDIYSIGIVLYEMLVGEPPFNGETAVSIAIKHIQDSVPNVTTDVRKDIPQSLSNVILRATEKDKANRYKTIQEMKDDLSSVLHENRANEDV", "assay": "In vitro kinase assay: inhibition of autophosphorylation of recombinant STKK1 (γ32P-ATP)", "format": "biochemical", "settings": "after 5 min pre-incubation", "method": "For the present study, recombinant His-tag-STKK1 was created along with part of the adjacent juxta-membrane domain (1-280 aa) using the pET14b vector system and specific primers (Table-1 and Table-2) as described previously. The recombinant proteins were expressed in BL21 DE3 (pLysS) and purified using Ni^+2-NTA-affinity chromatography, dialyzed against 10 mM Tris/HCl, pH 7.5, and stored as 10% glycerol stock (500 μg/ml) at −20° C. as described previously. In vitro kinase assays were performed using 2 μg STKK1 in the presence of 1 μCi γ^32P-ATP (specific activity 3000 Ci/mMol, PerkinElmer) at 30° C. for 45 min in a final volume of 30 μl phosphorylation buffer (50 mM Tris/HCl, pH7.5, 1 mM dithiothreitol, 5 mM MgCl2, and/or 5 mM MnCl2). The inhibition of autophosphorylation of STKK1 was carried out using this assay in the presence and absence of (50 μM) individual members of the 32 prescreened small molecule compound library. Phosphorylated proteins were separated by SDS-PAGE and subsequently identified by using Coomassie stain and autoradiography. The individual phosphorylated protein bands were then excised and subjected to radioactive counting using beta-scintillation counter for quantitative analysis. Experiments were repeated at least three times for statistical analysis."}, "S. pyogenes SP-STK": {"test_system": "S. pyogenes SP-STK", "assay": "In vitro autophosphorylation / kinase activity of SP-STK", "format": "biochemical"}, "S. aureus MW2-WT [2]": {"test_system": "S. aureus MW2-WT", "assay": "microbe, parasite or virus in culture", "format": "cell-based, Staphylococcus aureus", "settings": "E-test, 50 μM Inh2-B1, 6 antibiotics"}, "S. aureus MW2-WT [3]": {"test_system": "S. aureus MW2-WT", "assay": "Time-to-kill assay (OD and CFU counts over 16 h), broth dilution", "format": "cell-based, Staphylococcus aureus", "method": "FIGS. 4A-F show. […] Optical Density and corresponding Colony forming units of (C and D) MW2-WT and (E and F) MW2ΔSTK1 cultures in the presence or absence 50 μM Inh2-B1, 1.51 μM (1 μg/ml) Ceftriaxone, 2.125 μM (1 μg/ml) Cefotaxime, and combination of Inh2-B1 plus Ceftriaxone, and Inh2-B1 plus Cefotaxime. The experiments were carried out as described in the Materials and Method section using Muller-Hinton broth and seeded with 4×10^6 CFUs of S. aureus MW2-Wild type or MW2ΔSTK1 strains per well. Each data points represent Mean±S.D. P values of significance (**=<0.01, ***=<0.001) were determined using the t-test with Welch's corrections. NS—Not significant.\nSubsequently, the susceptibility of S. aureus MW2 strain to Ceftriaxone, Cefotaxime, Inh2, and Inh2-B1 was confirmed by the CLSI recommended serial dilution method using Muller Hinton broth. Minimum bactericidal activity (MBC) was measured using Muller-Hinton agar. Changes in the MBC of Ceftriaxone/Cefotaxime in the presence of serially diluted Inh2-B1 was determined in two steps. Initial screening was carried out using the Checkerboard method using Muller-Hinton agar (FIG. 15). […] Subsequent time to kill assays were carried out using 50 μM Inh2-B1 and Ceftriaxone. Cefotaxime (1 μg/ml) in a final volume of 250 μl using a sterile 96-well (U-bottom) microtiter plate over a period of 16 h at 37° C. under constant rotation (120 rpm). Optical density and corresponding CFU counts were measured at every two-hour interval up to 8 hours with a final overnight reading at the end of incubation period. CFU counts were measured using appropriate dilution of 10 μl of properly mixed samples at each time interval. All experiments were performed in three biological replicates and the statistical analysis of the results obtained at each time point was carried out by the non-parametric t-test with Welch's correction using GraphPad Prism 6 software."}, "[4]": {"test_system": "S. aureus MW2 wild-type biofilms", "assay": "Biofilm formation, crystal violet stain method", "format": "cell-based, Staphylococcus aureus", "settings": "25 μM", "method": "(§1) The ability to form biofilms by S. aureus MW2 strain in the absence and presence of Inh2-B1 was determined using the crystal violet stain method. Briefly, the assay was carried out in 24-well tissue culture plates in a final volume of 500 μl of TSB broth with or without Inh2-B1 (25 μM). The culture plates were then seeded with 1:1000 dilution of the freshly grown S. aureus cultures to late log phase (O.D600=0.8) and further incubated for 48 h. At the end of incubation, the culture medium from each well was carefully removed and stained with 1% Crystal violet for 5 min. The unbound stain was then removed by repeated washings with distilled water and air dried. The stained biofilms were then extracted and dissolved in 500 μl 100% of isopropanol. Aliquots of fully suspended biofilms (100 μl/well) in isopropanol from each well were spectrophotometrically (λ=550 nm) analyzed using a microtiter plate reader (Molecular Devices). The test samples were analyzed after subtracting the background values obtained from wells containing an only medium. All results were obtained with three independent cultures each in three wells. In another set of experiments. Inh2-B1 (25 μM) was added to the 48 h-grown established biofilms of S. aureus MW2 to determine the impact of Inh2-B1 on the preformed biofilms and its ability to disrupt or further formation of biofilms. For this, old medium was carefully removed to allow the minimal loss of the loosely attached apical part of the preformed biofilms and replace with 2 ml of fresh TSB medium with or without 25 μM Inh2-B1 inhibitor and incubated further for 48 h at 37° C. Subsequently, the biofilm formation or its disruption was quantitatively estimated as described above and statistically evaluated."}, "[5]": {"test_system": "S. aureus MW2ΔSTP1 biofilms", "assay": "Biofilm formation, crystal violet stain method", "format": "cell-based, Staphylococcus aureus", "settings": "25 μM", "method": "as §1"}, "[6]": {"test_system": "S. aureus MW2ΔSTK1 biofilms", "assay": "Biofilm formation, crystal violet stain method", "format": "cell-based, Staphylococcus aureus", "settings": "25 μM, further 48 h"}}}
{"smiles": "COC(=O)c1ccc2c(=O)[nH]c3c(C(=O)Nc4ccccc4)sc(=S)n3c2c1", "note": "[Inh2-B1, Methyl 5-oxo-3-(phenylcarbamoyl)-1-thioxo-4,5dihydro[1,3]thiazolo[3,4-a]quinazoline-8-carboxylate]", "values": [{"measurement": "IC50", "setting": "[1]", "value": 49, "unit": "µM"}, {"measurement": "inhibition of the kinase activity of SP-STK of S. pyogenes", "setting": "S. pyogenes SP-STK", "value": "did not inhibit the kinase activity"}, {"measurement": "effect on susceptibility patterns of antibiotics other than cell wall acting ones", "setting": "S. aureus MW2-WT [2]", "value": "did not change susceptibility patterns"}, {"measurement": "log increase in growth from starting inoculum", "setting": "S. aureus MW2-WT [3]; 100 μM Inh2-B1, 16 h", "value": "more than 3 log"}, {"measurement": "CFU count of MW2-WT after growth", "setting": "S. aureus MW2-WT [3]; 100 μM Inh2-B1, 16 h, starting inoculum 4×10^6 CFU", "value": "1.8±1.0×10^9 CFU"}, {"measurement": "growth pattern of the MW2 wild-type in the presence of Inh2-B1", "setting": "S. aureus MW2-WT [3]; FIGS. 4A and 4B, mimicked MW2ΔSTK1", "value": "slightly retarded"}, {"measurement": "growth of the MW2 wild-type, mixture", "setting": "S. aureus MW2-WT [3]; mixture of 1.5 μM Ceftriaxone (1 μg/ml) and 50 μM Inh2-B1", "value": "dramatically inhibited"}, {"measurement": "growth pattern of the wild-type, single agent", "setting": "S. aureus MW2-WT [3]; only 50 μM Inh2-B1, only 1.5 μM Ceftriaxone (1 μg/ml) or only 3 μM Cefotaxime (1 μg/ml), 16 h", "value": "remained unaltered"}, {"measurement": "log reduction in comparison to the wild-type", "setting": "S. aureus MW2-WT [3]; very high concentration (100 μM) of Inh2-B1", "value": "~2", "unit": "log"}, {"measurement": "biofilm formation in the presence of Inh2-B1", "setting": "[4]; 48 h", "value": "significantly decreased formation of biofilms"}, {"measurement": "effect on preformed biofilms", "setting": "[4]; further 48 h", "value": "significant reduction in biofilm formation"}, {"measurement": "biofilm formation in the presence of Inh2-B1", "setting": "[5]; 48 h", "value": "significantly decreased formation of biofilms"}, {"measurement": "effect on preformed biofilms", "setting": "[5]; further 48 h", "value": "significant reduction in biofilm formation"}, {"measurement": "effect on preformed biofilms", "setting": "[6]", "value": "did not affect biofilms of MW2ΔSTK1"}]}
